In paper PMC11280065, “^64Cu^2+ Complexes of Tripodal Amine Ligands’ In Vivo Tumor and Liver Uptakes and Intracellular Cu Distribution in the Extrahepatic Bile Duct Carcinoma Cell Line TFK-1: A Basic Comparative Study” (Pharmaceuticals, 2024):
Values belong to the molecule of their own block, whether it stands above or below them.

How the values were obtained:
[1] = tested on: mice bearing TFK-1-RFP cells; conditions: mean ± SD
[2] = tested on: TFK-1 cells; assay: Micro-PIXE analysis of intracellular Cu distribution; format: cell-based, human; conditions: compared among the three Cu2+ complexes and Cu2+ ions, no significant differences
Text: A positive correlation was observed between in vitro whole-cell uptake and in vivo tumor uptake (R = 0.992, p = 0.00772) (Figure S2). Similarly, we observed a consistent correlation between in vitro nuclear uptake and in vivo tumor uptake (417.6 counts ± 150.02 for Cu^2+-Tren, 203.00 counts ± 25.13 for Cu^2+-Dien, 94.82 counts ± 48.07 for Cu^2+-TPMA, and 35.57 counts ± 25.02 for Cu^2+ ions) (p < 0.05).
The human extrahepatic bile duct carcinoma cell line TFK-1 was obtained from the RIKEN Bioresource Research Center (Ibaraki, Japan) and immediately expanded and frozen in our laboratory. […] Exponentially growing cells were detached from plates using trypsin (0.5 w/v% Trypsin-5.3 mmol/L EDTA·4Na Solution without Phenol Red (×10), Fujifilm Wako Pure Chemical Corporation, Osaka, Japan), and the number of viable cells was determined using the trypan blue dye (Bio-Rad, Hercules CA, USA) exclusion method.
A micro-PIXE analysis was carried out at the QST Electrostatic Accelerator Facility. […] Cells were subsequently stained with DAPI (4′,6-diamidino-2-phenylindole; Bio-Rad, Hercules, CA, USA) for nuclear localization and observed under a fluorescence microscope (BZ-X810, Keyence, Osaka, Japan). […] Distributions of Cu, P, K, Ca, Al, Fe, and S in each group were determined using Kα lines. […] Nuclei localization was determined via fluorescence microscope images of DAPI staining. […]

- urinary excretion ([1]; urine collected during the 2.5 h post-administration, intravenous, TFK-1-RFP-xenografted mice): 1.68 ± 0.46 %ID
Compound: NCCNCCN.[Cl-].[Cl-].[Cu+2] [Cu^2+-Dien]

- tumor uptake ([1]; TFK-1-RFP-xenografted SCID beige mice, 2.5 h after intravenous injection of 1.85 MBq, n = 3–4/group): 7.56 ± 0.41 %ID/g
Compound: [Cl-].[Cl-].[Cu+2].c1ccc(CN(Cc2ccccn2)Cc2ccccn2)nc1 [Cu^2+-TPMA]

Compound: NCCN(CCN)CCN.[Cl-].[Cl-].[Cu+2] [Cu^2+-Tren]
- percentage counts of nuclear uptake/whole-cell uptake [2]: highest average value
